Laboratory results published in the NIST ThermoML archive (doi:10.1016/j.tca.2012.06.011).
“And” between values parts separate entries of the source, which are not always exact repeats. Equal entries are not always repeated. Numbers after ± are expanded uncertainties.

Columns and labels:
[1] = 101 kPa, Liquid; for viscosity: Capillary tube (Ostwald / Ubbelohde) method; for mass density: Vibrating tube method
[2] = xn = mol fraction of the nth substance listed; settings: 101 kPa, Liquid; for viscosity: Capillary tube (Ostwald / Ubbelohde) method; for mass density: Vibrating tube method

| Compound | viscosity ([1]; 298.15 K) | mass density ([1]; 298.15 K) | viscosity ([1]; 303.15 K) | mass density ([1]; 303.15 K) | viscosity ([1]; 308.15 K) | mass density ([1]; 308.15 K) | viscosity ([1]; 313.15 K) | mass density ([1]; 313.15 K) | viscosity ([1]; 323.15 K) | mass density ([1]; 323.15 K) | also measured |
| --- | --- | --- | --- | --- | --- | --- | --- | --- | --- | --- | --- |
| CCN(CC)CC [triethylamine] | 0.366 ± 0.005 mPa·s | 724.21 ± 0.25 kg/m3 | 0.34 ± 0.005 mPa·s | 719.54 ± 0.25 kg/m3 | 0.334 ± 0.004 mPa·s | 714.84 ± 0.25 kg/m3 | 0.331 ± 0.004 mPa·s | 710.1 ± 0.25 kg/m3 | 0.298 ± 0.004 mPa·s | 700.71 ± 0.25 kg/m3 | – |
| C1C[C@@H]2[C@H]3CC[C@H](C3)[C@@H]2C1 [exo-tetrahydrodicyclopentadiene] | 2.8 ± 0.043 mPa·s | 931.29 ± 0.76 kg/m3 | 2.549 ± 0.039 mPa·s | 927.38 ± 0.75 kg/m3 | 2.332 ± 0.036 mPa·s | 923.45 ± 0.75 kg/m3 and 923.46 ± 0.75 kg/m3 | 2.124 ± 0.033 mPa·s | 919.54 ± 0.75 kg/m3 | 1.811 ± 0.028 mPa·s | 911.7 ± 0.74 kg/m3 | – |
| C1C[C@@H]2[C@H]3CC[C@H](C3)[C@@H]2C1 [exo-tetrahydrodicyclopentadiene] + CN1CCNCC1 | – | – | – | – | – | – | – | – | – | – | viscosity ([2]; 298.15 K, x2 = 0): 2.8 ± 0.043 mPa·s; mass density ([2]; 298.15 K, x2 = 0): 931.29 ± 0.76 kg/m3; viscosity ([2]; 303.15 K, x2 = 0): 2.549 ± 0.039 mPa·s; mass density ([2]; 303.15 K, x2 = 0): 927.38 ± 0.75 kg/m3; viscosity ([2]; 308.15 K, x2 = 0): 2.332 ± 0.036 mPa·s; mass density ([2]; 308.15 K, x2 = 0): 923.45 ± 0.75 kg/m3; viscosity ([2]; 313.15 K, x2 = 0): 2.124 ± 0.033 mPa·s; mass density ([2]; 313.15 K, x2 = 0): 919.54 ± 0.75 kg/m3; viscosity ([2]; 323.15 K, x2 = 0): 1.811 ± 0.028 mPa·s; mass density ([2]; 323.15 K, x2 = 0): 911.7 ± 0.74 kg/m3 |
| CN1CCNCC1 [N-methylpiperazine] | 1.854 ± 0.024 mPa·s | 899.28 ± 0.13 kg/m3 | 1.583 ± 0.02 mPa·s | 894.9 ± 0.13 kg/m3 | 1.409 ± 0.017 mPa·s | 890.5 ± 0.13 kg/m3 | 1.258 ± 0.015 mPa·s | 886.07 ± 0.13 kg/m3 | 1.064 ± 0.013 mPa·s | 877.28 ± 0.13 kg/m3 | – |
| CCN(CC)CC [triethylamine] + C1C[C@@H]2[C@H]3CC[C@H](C3)[C@@H]2C1 | – | – | – | – | – | – | – | – | – | – | viscosity ([2]; 298.15 K, x1 = 1): 0.366 ± 0.005 mPa·s; mass density ([2]; 298.15 K, x1 = 1): 724.21 ± 0.25 kg/m3; viscosity ([2]; 303.15 K, x1 = 1): 0.34 ± 0.005 mPa·s; mass density ([2]; 303.15 K, x1 = 1): 719.54 ± 0.25 kg/m3; viscosity ([2]; 308.15 K, x1 = 1): 0.334 ± 0.004 mPa·s; mass density ([2]; 308.15 K, x1 = 1): 714.84 ± 0.25 kg/m3; viscosity ([2]; 313.15 K, x1 = 1): 0.331 ± 0.004 mPa·s; mass density ([2]; 313.15 K, x1 = 1): 710.1 ± 0.25 kg/m3; viscosity ([2]; 323.15 K, x1 = 1): 0.298 ± 0.004 mPa·s; mass density ([2]; 323.15 K, x1 = 1): 700.71 ± 0.25 kg/m3 |
